# Results reported in PMC6478823, “A suite of phenotypic assays to ensure pipeline diversity when prioritizing drug-like Cryptosporidium growth inhibitors” (Nature Communications, 2019).
# “And” between values parts separate entries of the source, which are not always exact repeats. Identical values can stand only once. Like-named read-outs stand apart in the source and are kept apart here.
# Tests used:
# C. parvum = assay: 48 h Cryptosporidium growth inhibition assay; type: cell-based, Cryptosporidium parvum; settings: for 0 - 48 h V. villosa lectin (asexual): Mean % Inhibition (parasites): replicates 1-3 in separate columns; for EC90: compound added 3 h post-infection, read at 48 h
# Text: As a first step in developing specific Cryptosporidium mode of action assays, we conducted a series of light microscopy time-lapse and transmission electron microscopy (TEM) time course experiments in order to precisely define C. parvum development within the HCT-8 cell culture system. […] This synchronicity was exploited by modifying a previously developed high-content microscopy assay. These assay modifications enabled the evaluation of several key events within the life cycle: host cell invasion, intracellular replication, host cell egress and establishment of new parasitophorous vacuoles, and sexual differentiation. […] Since the methods all used automated liquid handling, imaging, and image analysis, the assay methods all incorporated nuclear staining to monitor host cell numbers and enable recognition of HCT-8 cell monolayer damage, for example as an artifact from a malfunctioning plate washer or from unanticipated cytotoxicity of the compounds.
# Human ileocecal adenocarcinoma (HCT-8) cells were purchased from ATCC (catalog# CCL-244) and cultured in ATCC modified RPMI-1640 medium (Gibco, catalog# A10491–01), supplemented with 10% heat-inactivated fetal bovine serum (Sigma-Aldrich, catalog# 12306C) and 120 U/mL penicillin and 120 μg/mL streptomycin (Gibco, catalog# 15140-122) (culture media). […] For all experiments, HCT-8 cells between passages 9 and 39 were used. C. parvum (Iowa isolate) oocysts were purchased from Bunchgrass Farm (Deary, ID), stored at 4 °C and used within 5 months of collection from an infected calf. To induce excystation, oocysts were first treated with 10 mM hydrochloric acid for 10 min at 37 °C, spun at 14,000×g for 4.5 min at room temperature, treated with 2 mM sodium taurocholate for 10 min at 16 °C, spun as before, and resuspended in culture media for infection.
# A modification of a previously reported immunofluorescence assay was used to determine the EC50 and EC90 of compounds[13]. HCT-8 cells were grown to ≥ 90% confluence in 384-well plates (Corning, catalog# 353962) and infected with 5500 oocysts per well after they were induced for excystation as described above. Different concentrations of compounds were added 3 h post-infection and plates were incubated for another 45 h in a 5% CO2 incubator at 37 °C. Wells were then washed 3 times with PBS containing 111 mM D-galactose (PBS-D-gal), fixed with 4% paraformaldehyde (PFA) in PBS for 15 min at room temperature, permeabilized with 0.25% Triton X-100 for 10 min at 37 °C, washed 3 times with PBS with 0.1% Tween 20, and blocked with 4% bovine serum albumin (BSA) in PBS for 2 h at 37 °C or 4 °C overnight. Parasitophorous vacuoles were stained with 1.33 µg/mL of fluorescein-labeled Vicia villosa lectin (Vector Laboratories, catalog# FL-1231) diluted in 1% BSA in PBS with 0.1% Tween 20 for 1 h at 37 °C, followed by addition of Hoechst 33258 (AnaSpec, catalog# AS-83219) at 0.09 mM diluted in water for another 15 min at 37 °C. Wells were then washed 5 times with PBS containing 0.1% Tween 20. A Nikon Eclipse Ti2000 epifluorescence microscope with an automated stage was programmed using NIS-Elements Advanced Research software (Nikon, USA) to focus on the center of each well and take a 3 × 3 or 6 × 6 composite image using an EXi blue fluorescence microscopy camera (QImaging, Canada) with a 20 × objective (NA = 0.45). Nuclei and parasite images were separately exported as.tif files and analyzed using macros developed on the ImageJ platform (National Institutes of Health)[13].
# [1] = test system: C. parvum DMC1 expression; assay: Sexual differentiation assay (DMC1 expression); type: cell-based, Cryptosporidium parvum; settings: for 48 - 72 h DMC1 (asexual to sexual conversion): Mean % DMC1 inhibition (normalized to host nuclei): replicates 1-3 in separate columns; for Asexual to sexual differentiation: Mean % DMC1 inhibition (normalized to host nuclei), Average: average of replicates; for Asexual to sexual differentiation: Mean % DMC1 inhibition (normalized to host nuclei), Replicate 1a: single replicate 1; for Asexual to sexual differentiation: Mean % DMC1 inhibition (normalized to host nuclei), Replicate 2a: single replicate 2; for Asexual to sexual differentiation: Mean % DMC1 inhibition (normalized to host nuclei), Replicate 3a: single replicate 3; for Asexual to sexual differentiation: Mean % DMC1 inhibition (normalized to host nuclei), Replicate 4a: single replicate 4
# Text: We utilized DMC1 as a marker of C. parvum sexual development, and used the anti-DMC1 monoclonal antibody to develop a moderate-throughput high-content microscopy assay for characterizing anticryptosporidial compounds (Fig. 6a). […] Therefore, in order to enable numerical comparison of the ability of compounds to block sexual development with moderate throughput, we adopted a strategy of reporting the percent inhibition of DMC1 expression by the previously determined EC90 of each compound in the standard asexual development assay (Fig. 6c and Supplementary Table 2).
# Fig. 6 Assay to measure asexual-to-sexual-stage conversion. a Schematic of the experimental approach. […] For b and c the mean and SD combined from at least two biological replicates with four technical replicates per experiment are shown. […] At given time points post-infection, infected cells were washed 3 times with PBS containing 111 mM of D-galactose, fixed for 15 min at room temperature with 4% paraformaldehyde in PBS, and permeabilized with 0.25% triton X-100 in PBS for 10 min at 37 °C. Cells were then washed 3 times with PBS and blocked at least overnight at 4 °C with 1% BSA in PBS (blocking buffer). Cells were stained with monoclonal antibody (1H10G7), either neat culture supernatant or 12.8 µg/mL of purified IgG in blocking buffer for 1 h at 37 °C, followed by 2 washes with PBS. Cells were then co-stained with a 1:500 dilution (4 µg/mL) of Alexa Fluor 568 goat anti-mouse IgG (Invitrogen, catalog# A-11004) and 1.33 µg/mL fluorescein-labeled Vicia villosa lectin (Vector Laboratories, catalog# FL-1231) diluted in blocking buffer for 1 h at 37 °C. Stains were then removed and 0.09 mM Hoechst 33258 (AnaSpec, catalog# AS-83219) also diluted in blocking buffer was added for another 15 min at 37 °C, followed by 2 PBS washes and imaging on a Nikon Eclipse Ti2000 epifluorescence microscope run with NIS-Elements Advanced Research software (Nikon, USA) and equipped with an EXi blue fluorescent microscopy camera (QImaging, Canada). For enumerating parasites, tiled 2 × 2 images with 15% overlapping edges were taken using a 40 × dry objective (0.7 NA), and for finer details, Z stack images were acquired using a 60 × oil objective (1.4 NA). Lectin positive cells in focus were first counted, followed by DMC1.
# For compound dose-response studies, the same assay was performed in 384-well plates and imaged using a 20 × dry objective (NA = 0.45). Tiled 4 × 4 to 6 × 6 images were taken. Images were analyzed using ImageJ software and the custom macro provided in Supplementary Method 2.
# [2] = read-out: Regular 3 to 48 h assay in vitro EC90, C. parvum in HCT-8 cells
# [3] = compound at asexual EC90, 48-72 h
smiles,measurement,setting,value
O=C(Nc1ccc(Cl)cc1)N1CCN(c2ccc3nncn3n2)CC1 [D-1],0 - 48 h V. villosa lectin (asexual): Mean % Inhibition (parasites),C. parvum; D-1 at log conc (µM) 0.00,-13.99% and -26.93% and 12.39%
same,0 - 48 h V. villosa lectin (asexual): Mean % Inhibition (parasites),C. parvum; D-1 at log conc (µM) 0.30,44.90% and 34.43% and 28.35%
same,0 - 48 h V. villosa lectin (asexual): Mean % Inhibition (parasites),C. parvum; D-1 at log conc (µM) 0.48,62.14% and 71.97% and 62.62%
same,0 - 48 h V. villosa lectin (asexual): Mean % Inhibition (parasites),C. parvum; D-1 at log conc (µM) 0.60,81.17% and 79.33% and 75.56%
same,0 - 48 h V. villosa lectin (asexual): Mean % Inhibition (parasites),C. parvum; D-1 at log conc (µM) 0.85,91.46% and 90.48% and 90.58%
same,0 - 48 h V. villosa lectin (asexual): Mean % Inhibition (parasites),C. parvum; D-1 at log conc (µM) 1.08,93.34% and 92.97% and 93.35%
same,0 - 48 h V. villosa lectin (asexual): Mean % Inhibition (parasites),C. parvum; D-1 at log conc (µM) 1.40,93.98% and 94.31% and 94.76%
same,0 - 48 h V. villosa lectin (asexual): Mean % Inhibition (parasites),C. parvum; D-1 at log conc (µM) -0.70,-20.95% and -21.90% and -17.53%
same,0 - 48 h V. villosa lectin (asexual): Mean % Inhibition (parasites),C. parvum; D-1 at log conc (µM) -1.40,-23.49% and -23.30% and -25.37%
same,EC50,"C. parvum; read-out: 0 − 48 h V. villosa lectin (asexual): EC50, asexual growth assay, first 48 h, range in brackets",2100 nM
same,EC90,C. parvum; [2],5100 nM
same,48 - 72 h DMC1 (asexual to sexual conversion): Mean % DMC1 inhibition (normalized to host nuclei),[1]; D-1 at log conc (µM) 0.16,-9.83% and -22.30% and 31.77%
same,48 - 72 h DMC1 (asexual to sexual conversion): Mean % DMC1 inhibition (normalized to host nuclei),[1]; D-1 at log conc (µM) 0.46,54.19% and 44.15% and 54.54%
same,48 - 72 h DMC1 (asexual to sexual conversion): Mean % DMC1 inhibition (normalized to host nuclei),[1]; D-1 at log conc (µM) 0.58,71.57% and 53.72% and 69.21%
same,48 - 72 h DMC1 (asexual to sexual conversion): Mean % DMC1 inhibition (normalized to host nuclei),[1]; D-1 at log conc (µM) 0.71,84.32%
same,48 - 72 h DMC1 (asexual to sexual conversion): Mean % DMC1 inhibition (normalized to host nuclei),[1]; D-1 at log conc (µM) 1.18,94.93% and 94.90% and 95.67%
same,48 - 72 h DMC1 (asexual to sexual conversion): Mean % DMC1 inhibition (normalized to host nuclei),[1]; D-1 at log conc (µM) 1.66,95.75% and 98.23% and 93.36%
same,48 - 72 h DMC1 (asexual to sexual conversion): Mean % DMC1 inhibition (normalized to host nuclei),[1]; D-1 at log conc (µM) -0.14,2.15% and -53.03% and -30.95%
same,48 - 72 h DMC1 (asexual to sexual conversion): Mean % DMC1 inhibition (normalized to host nuclei),[1]; D-1 at log conc (µM) -0.62,-16.25% and -49.91% and -40.61%
same,48 - 72 h DMC1 (asexual to sexual conversion): Mean % DMC1 inhibition (normalized to host nuclei),[1]; D-1 at log conc (µM) -1.10,-18.85% and -40.36% and -14.22%
same,activity in the DMC1 (sexual development) assay relative to asexual assay,"[1]; compound added at 48 h, read at 72 h, result in words",equal potency before and after 48 h
same,"Asexual to sexual differentiation: Mean % DMC1 inhibition (normalized to host nuclei), Average",[1]; [3],83.01%
same,"Asexual to sexual differentiation: Mean % DMC1 inhibition (normalized to host nuclei), Replicate 1a",[1]; [3],87.55%
same,"Asexual to sexual differentiation: Mean % DMC1 inhibition (normalized to host nuclei), Replicate 2a",[1]; [3],90.87%
same,"Asexual to sexual differentiation: Mean % DMC1 inhibition (normalized to host nuclei), Replicate 3a",[1]; [3],72.73%
same,"Asexual to sexual differentiation: Mean % DMC1 inhibition (normalized to host nuclei), Replicate 4a",[1]; [3],66.31%
same,"Asexual to sexual differentiation: Mean % DMC1 inhibition (normalized to host nuclei), Replicate 5a","[1]; compound at asexual EC90, 48-72 h, single replicate 5",89.27%
same,"Asexual to sexual differentiation: Mean % DMC1 inhibition (normalized to host nuclei), Replicate 6a","[1]; compound at asexual EC90, 48-72 h, single replicate 6",91.32%
same,EC50,"[1]; inhibition of DMC1 expression from 48 to 72 h, range in brackets, read-out: 48 − 72 h DMC1 (asexual to sexual conversion): EC50",2400 nM
CN(C)c1ccc(C(=C2C=CC(=[N+](C)C)C=C2)c2ccc(N(C)C)cc2)cc1 [Gentian Violet],EC90,C. parvum; [2],1050 nM
same,"Asexual to sexual differentiation: Mean % DMC1 inhibition (normalized to host nuclei), Average",[1]; [3],34.34%
same,"Asexual to sexual differentiation: Mean % DMC1 inhibition (normalized to host nuclei), Replicate 1a",[1]; [3],8.16%
same,"Asexual to sexual differentiation: Mean % DMC1 inhibition (normalized to host nuclei), Replicate 2a",[1]; [3],38.90%
same,"Asexual to sexual differentiation: Mean % DMC1 inhibition (normalized to host nuclei), Replicate 3a",[1]; [3],55.96%
COc1ccc(NC(=O)N2CCCCN3C(CN(C)C)C(c4ccc(C#Cc5ccccc5)cc4)C3C2)cc1 (stereo not shown) [BRD7929],EC90,C. parvum; [2],150 nM
same,"Asexual to sexual differentiation: Mean % DMC1 inhibition (normalized to host nuclei), Average",[1]; [3],63.11%
same,"Asexual to sexual differentiation: Mean % DMC1 inhibition (normalized to host nuclei), Replicate 1a",[1]; [3],38.81%
same,"Asexual to sexual differentiation: Mean % DMC1 inhibition (normalized to host nuclei), Replicate 2a",[1]; [3],78.93%
same,"Asexual to sexual differentiation: Mean % DMC1 inhibition (normalized to host nuclei), Replicate 3a",[1]; [3],84.43%
same,"Asexual to sexual differentiation: Mean % DMC1 inhibition (normalized to host nuclei), Replicate 4a",[1]; [3],50.27%
CN(C)S(=O)(=O)c1ccc(C(=O)N2CCN(c3ccc4nncn4n3)CC2)cc1 [D-44],EC90,C. parvum; [2],11600 nM
same,"Asexual to sexual differentiation: Mean % DMC1 inhibition (normalized to host nuclei), Average",[1]; [3],74.35%
same,"Asexual to sexual differentiation: Mean % DMC1 inhibition (normalized to host nuclei), Replicate 1a",[1]; [3],86.32%
same,"Asexual to sexual differentiation: Mean % DMC1 inhibition (normalized to host nuclei), Replicate 2a",[1]; [3],62.37%
CC(C)c1c(C(=O)Nc2ccccc2)c(-c2ccccc2)c(-c2ccc(F)cc2)n1CC[C@@H](O)C[C@@H](O)CC(=O)O [Atorvastatin],EC90,"C. parvum; Cryptosporidium parvum, HCT-8, read-out: Regular 3 to 48 h assay in vitro EC90, C. parvum in HCT-8 cells",2180 nM
same,"Asexual to sexual differentiation: Mean % DMC1 inhibition (normalized to host nuclei), Average",[1]; [3],36.34%
same,"Asexual to sexual differentiation: Mean % DMC1 inhibition (normalized to host nuclei), Replicate 1a",[1]; [3],55.77%
same,"Asexual to sexual differentiation: Mean % DMC1 inhibition (normalized to host nuclei), Replicate 2a",[1]; [3],16.91%
Oc1c(CN2CCN(c3ccccc3F)CC2)cc(Br)c2cccnc12 [A-6],EC90,C. parvum; [2],1330 nM
same,"Asexual to sexual differentiation: Mean % DMC1 inhibition (normalized to host nuclei), Average",[1]; [3],17.22%
same,"Asexual to sexual differentiation: Mean % DMC1 inhibition (normalized to host nuclei), Replicate 1a",[1]; [3],31.05%
same,"Asexual to sexual differentiation: Mean % DMC1 inhibition (normalized to host nuclei), Replicate 2a",[1]; [3],3.39%
